Read-outs that look alike come from different tables or passages of the source.
Experiments:
Type in all cases: in vivo
[1] = test system: Viola tricolor (VIOTR); experiment: Pre-emergence herbicidal action against VIOTR
How it was run: (§1)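 Seeds sown in pots and covered with soil; WP or EC formulations sprayed onto the soil surface at 600 l/ha water with 0.5% additive, at 320 g/ha or lower. Greenhouse growth for about 3 weeks, then visual scoring as % effect against untreated controls (100% = plants dead).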

[2] = test system: Lolium rigidum (LOLRI); experiment: Pre-emergence herbicidal action against LOLRI
How it was run: as §1

[3] = test system: Setaria viridis (SETVI); experiment: Pre-emergence herbicidal action against SETVI
How it was run: as §1

[4] = test system: Amaranthus retroflexus (AMARE); experiment: Post-emergence herbicidal action against AMARE; details: 80 g/ha, visual rating about 3 weeks after treatment vs untreated controls (100% = plants have died, 0% = like control plants)
How it was run: (§2)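 Values are percent visual activity (0% like control, 100% plants dead) after about 3 weeks in the greenhouse. Treatment: post-emergence spray at one-leaf stage, 600 l/ha spray volume, 0.5% additive, doses 320 g/ha or lower.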

[5] = test system: Matricaria inodora (MATIN); experiment: Pre-emergence herbicidal action against MATIN; details: dosage 320 g/ha
How it was run: as §1

[6] = test system: Verconica persica (VERPE); experiment: Post-emergence herbicidal action against VERPE
How it was run: as §2

[7] = test system: Alopecurus myosuroides (ALOMY); experiment: Pre-emergence herbicidal action against ALOMY; details: scored visually after about 3 weeks, 100% = plants have died
How it was run: as §1

[8] = test system: Amaranthus retroflexus (AMARE); experiment: Pre-emergence herbicidal action against AMARE; details: visual scoring after about 3 weeks vs untreated controls
How it was run: as §1

[9] = test system: Verconica persica (VERPE); experiment: Pre-emergence herbicidal action against VERPE; details: dosage 320 g/ha
How it was run: as §1

[10] = test system: Pharbitis purpurea (PHBPU); experiment: Pre-emergence herbicidal action against PHBPU
How it was run: as §1

[11] = test system: Avena fatua (AVEFA); experiment: Pre-emergence herbicidal action against AVEFA; details: 320 g/ha, visual scoring after about 3 weeks vs untreated controls
How it was run: as §1

[12] = test system: Polygonum convolvulus (POLCO); experiment: Post-emergence herbicidal action against POLCO; details: dosage 80 g/ha
How it was run: as §2

[13] = test system: Echinochloa crus-galli (ECHCG); experiment: Pre-emergence herbicidal action against ECHCG; details: dosage 320 g/ha
How it was run: as §1

[14] = test system: Digitaria sanguinalis (DIGSA); experiment: Pre-emergence herbicidal action against DIGSA
How it was run: as §1

[15] = test system: Oryza sativa (ORYSA); details: pre-emergence, 80 g/ha, crop plant compatibility, in comparison to untreated controls
How it was run: (§3)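 Crop injury rated visually in percent against untreated plants roughly 3 weeks after treatment (0% no effect, 100% plants dead). Compounds, as WP or EC with 0.5% additive in 600 l/ha water, were applied to the covering soil right after sowing; greenhouse growth. Suffixes a, b, c denote different dosages.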

[16] = test system: Zea mays (ZEAMX); details: pre-emergence, 80 g/ha, crop plant compatibility, in comparison to untreated controls
How it was run: as §3

[17] = test system: Oryza sativa (ORYSA); details: crop plant compatibility
How it was run: (§4)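 Visual rating (% effect vs. untreated plants; 100% = plant death) made about 3 weeks after treatment. Plants had been sprayed at one-leaf stage, 2–3 weeks post-sowing, with aqueous WP/EC preparations containing 0.5% additive, 600 l/ha water volume; a, b, c mark dose levels.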

[18] = test system: Zea mays (ZEAMX); details: 20 g/ha, ZEAMX, effect in comparison to untreated controls
How it was run: as §4

[19] = test system: Polygonum convolvulus (POLCO); experiment: Pre-emergence herbicidal action against POLCO; details: dosage 320 g/ha
How it was run: as §1

[20] = test system: Echinochloa crus-galli (ECHCG); experiment: Post-emergence herbicidal action against ECHCG
How it was run: as §2

[21] = test system: Avena fatua (AVEFA); experiment: Post-emergence herbicidal action against AVEFA; details: visual rating about 3 weeks after treatment
How it was run: as §2

[22] = test system: Viola tricolor (VIOTR); experiment: Post-emergence herbicidal action against VIOTR; details: 80 g/ha
How it was run: as §2

[23] = test system: Pharbitis purpurea (PHBPU); experiment: Post-emergence herbicidal action against PHBPU
How it was run: as §2

[24] = test system: Setaria viridis (SETVI); experiment: Post-emergence herbicidal action against SETVI
How it was run: as §2

[25] = test system: Digitaria sanguinalis (DIGSA); experiment: Post-emergence herbicidal action against DIGSA; details: visual rating about 3 weeks after treatment
How it was run: as §2

[26] = test system: Matricaria inodora (MATIN); experiment: Post-emergence herbicidal action against MATIN; details: dosage 80 g/ha
How it was run: as §2

[27] = test system: Alopecurus myosuroides (ALOMY); experiment: Post-emergence herbicidal action against ALOMY; details: visual rating about 3 weeks after treatment vs untreated controls (100% = plants have died, 0% = like control plants)
How it was run: as §2

[28] = test system: Lolium rigidum (LOLRI); experiment: Post-emergence herbicidal action against LOLRI
How it was run: as §2

[29] = test system: Abutilon theophrasti (ABUTH); experiment: Post-emergence herbicidal action against ABUTH; details: visual rating about 3 weeks after treatment vs untreated controls (100% = plants have died, 0% = like control plants)
How it was run: as §2

[30] = 80 g/ha, visual scoring after about 3 weeks vs untreated controls
[31] = 20 g/ha, effect vs untreated controls
[32] = 80 g/ha, effect in comparison to untreated controls

| SMILES | Pre-emergence action against VIOTR in % ([1]; 320 g/ha, Viola tricolor) | Pre-emergence action against LOLRI in % ([2]; dosage 320 g/ha) | Pre-emergence action against SETVI in % ([3]; dosage 80 g/ha) | Pre-emergence action against SETVI in % ([3]; dosage 320 g/ha) | Post-emergence action against AMARE in % [4] | Pre-emergence action against MATIN in % [5] | Post-emergence action against VERPE in % ([6]; dosage 80 g/ha) | Pre-emergence action against ALOMY ([7]; 80 g/ha) | Pre-emergence action against ALOMY ([7]; 320 g/ha) | Pre-emergence action against AMARE in % ([8]; 80 g/ha) | Pre-emergence action against AMARE in % ([8]; 320 g/ha) | Pre-emergence action against VERPE in % [9] | Pre-emergence action against PHBPU in % ([10]; dosage 320 g/ha) | Pre-emergence action against AVEFA in % [11] | Pre-emergence action against ECHCG in % [13] | Pre-emergence action against DIGSA in % [14, 30] | Pre-emergence action against DIGSA in % ([14]; dosage 320 g/ha) | Pre-emergence action against ORYSA in % [15] | Post-emergence action against ORYSA in % [17, 31] | Pre-emergence action against POLCO in % [19] | further results |
| --- | --- | --- | --- | --- | --- | --- | --- | --- | --- | --- | --- | --- | --- | --- | --- | --- | --- | --- | --- | --- | --- |
| O=C(O)COc1nn(-c2ccccn2)c(-c2ccnc(F)c2)c1Br [Example I-122] | 100% | 100% | 100% | 100% | 90% | 80% | 80% | 80% | 100% | 80% | 100% | 100% | 90% | 90% | 100% | 100% | 100% | 0% | 0% | 80% | Pre-emergence action against VIOTR in % ([1]; dosage 80 g/ha): 100%; Post-emergence action against POLCO in % [12]: 90%; Pre-emergence action against ZEAMX in % [16]: 0%; Post-emergence action against ORYSA in % [17, 32]: 0%; Post-emergence action against ZEAMX in % (crop plant compatibility) [18]: 0% |
| COC(=O)CNC(=O)COc1nn(-c2ccccn2)c(-c2ccc(F)nc2)c1Cl [Example I-64] | 90% | 100% | 90% | 100% | 90% | 90% | 90% | 90% | 100% | 100% | 100% | 90% | 90% | 90% | 100% | 100% | 100% | 20% | 10% | 90% | Post-emergence action against ECHCG in % ([20]; dosage 80 g/ha): 90%; Pre-emergence action against LOLRI in % ([2]; dosage 80 g/ha): 80%; Post-emergence action against AVEFA in % ([21]; 80 g/ha): 80%; Post-emergence action against VIOTR in % [22]: 80%; Post-emergence action against PHBPU in % ([23]; dosage 80 g/ha): 90%; Post-emergence action against SETVI in % ([24]; dosage 80 g/ha): 90%; Post-emergence action against DIGSA in % ([25]; 80 g/ha): 90%; Post-emergence action against MATIN in % [26]: 90%; Post-emergence action against ALOMY in % ([27]; 80 g/ha): 100%; Pre-emergence action against PHBPU in % ([10]; dosage 80 g/ha): 90%; Post-emergence action against LOLRI in % ([28]; dosage 80 g/ha): 80%; Post-emergence action against ABUTH in % ([29]; 80 g/ha): 90% |
| C#CCOC(=O)COc1nn(-c2ccccn2)c(-c2ccc(F)nc2)c1Br [Example I-360] | 100% | 100% | 90% | 100% | – | 90% | 80% | 100% | 100% | 90% | 100% | 90% | 90% | 90% | 100% | 90% | 100% | 10% | – | 100% | Post-emergence action against ECHCG in % ([20]; dosage 80 g/ha): 80%; Post-emergence action against ECHCG in % ([20]; dosage 320 g/ha): 80%; Post-emergence action against AVEFA in % ([21]; 320 g/ha): 80%; Post-emergence action against PHBPU in % ([23]; dosage 80 g/ha): 80%; Post-emergence action against PHBPU in % ([23]; dosage 320 g/ha): 80%; Post-emergence action against SETVI in % ([24]; dosage 80 g/ha): 80%; Post-emergence action against SETVI in % ([24]; dosage 320 g/ha): 80%; Post-emergence action against DIGSA in % ([25]; 80 g/ha): 80%; Post-emergence action against DIGSA in % ([25]; 320 g/ha): 80%; Post-emergence action against VERPE in % ([6]; 320 g/ha, VERPE): 80%; Post-emergence action against ALOMY in % ([27]; 80 g/ha): 90%; Post-emergence action against ALOMY in % ([27]; 320 g/ha): 90%; Pre-emergence action against PHBPU in % ([10]; dosage 80 g/ha): 80%; Post-emergence action against LOLRI in % ([28]; dosage 320 g/ha): 90%; Post-emergence action against ORYSA in % [17, 32]: 20%; Post-emergence action against ABUTH in % ([29]; 320 g/ha): 80% |
| COC(=O)CNC(=O)COc1nn(-c2ccccn2)c(-c2ccc(F)nc2)c1Br [Example I-97] | 100% | 100% | 80% | 100% | 90% | 80% | 90% | 90% | 100% | 90% | 100% | 90% | 90% | 80% | – | 100% | 100% | 10% | 0% | 90% | Post-emergence action against ECHCG in % ([20]; dosage 80 g/ha): 80%; Pre-emergence action against LOLRI in % ([2]; dosage 80 g/ha): 80%; Post-emergence action against AVEFA in % ([21]; 80 g/ha): 80%; Post-emergence action against VIOTR in % [22]: 80%; Post-emergence action against PHBPU in % ([23]; dosage 80 g/ha): 80%; Post-emergence action against SETVI in % ([24]; dosage 80 g/ha): 80%; Post-emergence action against DIGSA in % ([25]; 80 g/ha): 80%; Post-emergence action against MATIN in % [26]: 80%; Post-emergence action against ALOMY in % ([27]; 80 g/ha): 90%; Post-emergence action against ORYSA in % [17, 32]: 10%; Post-emergence action against ABUTH in % ([29]; 80 g/ha): 90% |

— patent publication US20240041042A1, “1-(PYRIDYL)-5-AZINYLPYRAZOLE DERIVATIVES, AND THEIR USE FOR CONTROL OF UNDESIRED PLANT GROWTH” (Bayer Aktiengesellschaft, priority 2020, published 2024)
